#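 Compound exposure: 48 hours, 5 concentrations, 96-well plates. TGI is the concentration that stops growth completely.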
# What was measured:
# Test in all cases: NCI-60 cell line screen, 48 h
# HCC-2998 colon = test system: HCC-2998 colon
# MOLT-4 leukemia = test system: MOLT-4 leukemia
# LOX IMVI melanoma = test system: LOX IMVI melanoma
# UACC-62 melanoma = test system: UACC-62 melanoma
# HS 578T breast = test system: HS 578T breast
# MCF7 breast = test system: MCF7 breast
# U251 CNS = test system: U251 CNS
# CAKI-1 renal = test system: CAKI-1 renal
# SF-268 CNS = test system: SF-268 CNS
# SF-539 CNS = test system: SF-539 CNS
# OVCAR-3 ovarian = test system: OVCAR-3 ovarian
SMILES,TGI (HCC-2998 colon),TGI (MOLT-4 leukemia),TGI (LOX IMVI melanoma),TGI (UACC-62 melanoma),TGI (HS 578T breast),TGI (MCF7 breast),TGI (U251 CNS),TGI (CAKI-1 renal),TGI (SF-268 CNS),TGI (SF-539 CNS),TGI (OVCAR-3 ovarian)
COc1ccc2c(c1)-c1[nH]c3ccccc3c1CC2,23.6 µM,36.2 µM,36.3 µM,29.4 µM,30.6 µM,29.7 µM,30.8 µM,29.4 µM,28.4 µM,31.2 µM,33.2 µM
COc1ccccc1NS(=O)(=O)c1ccc2ncn(NS(=O)(=O)c3ccc(Cl)cc3)c(=O)c2c1,> 100 µM,> 100 µM,> 100 µM,> 100 µM,> 100 µM,> 100 µM,> 100 µM,> 100 µM,> 100 µM,> 100 µM,> 100 µM
O=[N+]([O-])c1ccc2ncccc2c1CCc1c([N+](=O)[O-])ccc2ncccc12,> 100 µM,> 100 µM,> 100 µM,> 100 µM,> 100 µM,> 100 µM,> 100 µM,> 100 µM,> 100 µM,> 100 µM,> 100 µM

# — PubChem BioAssay (NCI)
